# Measured values as given in the Deep4Chem optical property database.
# Experiment: solvent given as SMILES
# [1] = in c1cc(-n2c3ccccc3c3ccccc32)cc(-n2c3ccccc3c3ccccc32)c1
smiles,measurement,setting,value
COC(=O)c1noc(-c2ccccc2)c1Cl,fluorescence lifetime,in C1CCCCC1,0.67 ns
CSc1ccc(C#Cc2ccc(C#Cc3ccc(C#Cc4ccccc4C#N)cc3C#N)cc2C#N)cc1,fluorescence lifetime,in ClC(Cl)Cl,1.29 ns
CCN1\C(=C/C=C/C=C/C2=[N+](CC)c3ccc4ccccc4c3C2(C)C)C(C)(C)c2c1ccc1ccccc21,fluorescence lifetime,in C1CCOC1,1.11 ns
same,fluorescence lifetime,in CC#N,0.85 ns
same,fluorescence lifetime,in CC(C)=O,0.96 ns
same,fluorescence lifetime,in CCO,0.93 ns
same,fluorescence lifetime,in CN(C)C=O,1.19 ns
same,fluorescence lifetime,in CO,0.76 ns
same,fluorescence lifetime,in CS(C)=O,1.31 ns
same,fluorescence lifetime,in ClCCl,1.3 ns
O=C1NC(=O)c2c1c1c3ccccc3[nH]c1c1[nH]c3ccccc3c21,fluorescence lifetime,in C1CCOC1,8.6 ns
same,fluorescence lifetime,in CC#N,10 ns
same,fluorescence lifetime,in CC(C)OC(C)C,7.3 ns
same,fluorescence lifetime,in CCCCOCCCC,8 ns
same,fluorescence lifetime,in CCO,7.7 ns
same,fluorescence lifetime,in CCOC(C)=O,8.6 ns
same,fluorescence lifetime,in CN(C)C=O,13 ns
same,fluorescence lifetime,in ClCCl,7.1 ns
Cc1ccc(C(=O)c2c(C)c3ccc4cccc5c6cccc7ccc2c(c76)c3c45)cc1,fluorescence lifetime,in ClCCl,3.6 ns
COC(=O)C(NC(=O)OC(C)(C)C)c1ccc2oc(-c3ccc(OC(=O)c4ccccc4)cc3OC(=O)c3ccccc3)nc2c1 (stereo not given),fluorescence lifetime,in CC1CCCCC1,0.358 ns
same,fluorescence lifetime,in CC#N,0.003 ns
same,fluorescence lifetime,in CO,0.01 ns
CCOC(=O)c1ccc2c(c1)[nH]c1c3ccc(C(=O)OCC)cc3sc21,fluorescence lifetime,in CCCO,2.6 ns
CCC(CC)COC1=CC2=C3c4cc(OCC(CC)CC)c(-c5cccs5)n4[B-](F)(F)[n+]4nnn(c43)[B-](F)(F)[N+]2=C1c1cccs1,fluorescence lifetime,in C1CCOC1,0.5 ns
same,fluorescence lifetime,in ClCCl,0.5 ns
CCCCCCCCOC(=O)c1ccc(-c2cc3ccc4cc(-c5ccc(C(=O)OCCCCCCCC)cc5)cc5ccc(c2)c3c45)cc1,fluorescence lifetime,in Cc1ccccc1,49 ns
COc1ccc2nc(/N=N/c3ccc(N(C)C)cc3)sc2c1,fluorescence lifetime,in CC#N,4.92 ns
same,fluorescence lifetime,in ClCCl,4.98 ns
CCCCCCCCCCCCN1C(=O)c2c(c3ccc4cc(-c5ccc(C#N)cc5)c(OC)cc4c3c3c2ccc2cc(-c4ccc(C#N)cc4)c(OC)cc23)C1=O,fluorescence lifetime,in ClCCl,6.3 ns
Cc1cc(-c2ccccc2)cc(C)[o+]1,fluorescence lifetime,in CC#N,12.1 ns
same,fluorescence lifetime,in ClCCl,0.78 ns
c1ccn(-c2ccc(-c3cc(-c4ccc(-n5cccc5)cc4)cc(-c4ccc(-n5cccc5)cc4)c3)cc2)c1,fluorescence lifetime,in ClCCl,2.98 ns
COc1ccc2cc(C#Cc3ccc([N+](=O)[O-])cc3)ccc2c1,fluorescence lifetime,in C1CCOC1,0.57 ns
same,fluorescence lifetime,in ClC(Cl)Cl,0.77 ns
same,fluorescence lifetime,in ClCCl,0.32 ns
Nc1cc(N)cc(-c2nc3ccccc3s2)c1,fluorescence lifetime,in C1CCCCC1,4.63 ns
same,fluorescence lifetime,in C1COCCO1,4.09 ns
same,fluorescence lifetime,in CC#N,4.14 ns
same,fluorescence lifetime,in CC(C)O,6.4 ns
same,fluorescence lifetime,in CCOC(C)=O,3.84 ns
same,fluorescence lifetime,in CCOCC,3.2 ns
same,fluorescence lifetime,in CO,2.07 ns
same,fluorescence lifetime,in O,1.32 ns
c1ccc(-c2nc(-c3ccccc3)nc(-c3ccc(-c4ccc(N5c6ccccc6[Si](c6ccccc6)(c6ccccc6)c6ccccc65)cc4)cc3)n2)cc1,fluorescence lifetime,[1],6 ns
c1ccc(N2c3ccc4ccccc4c3-c3c4ccccc4cc[n+]3[B-]2(c2ccccc2)c2ccccc2)cc1,fluorescence lifetime,in Cc1ccccc1,6.31 ns
COc1ccc2c(c1)C(=O)c1ccccc1-2,fluorescence lifetime,in C1CCCCC1,9.9 ns
same,fluorescence lifetime,in CC#N,1.8 ns
CC(=O)c1ccc(-c2cnc3nn4ccccc4c3n2)cc1,fluorescence lifetime,in C1CCOC1,5.1 ns
CCCCCCCCCCOc1ccc(C#Cc2cc3c(C#Cc4ccc(OCCCCCCCCCC)cc4)c(C#Cc4ccc(OCCCCCCCCCC)cc4)c4cc(C#Cc5ccc(OCCCCCCCCCC)cc5)cc5c(C#Cc6ccc(OCCCCCCCCCC)cc6)c(C#Cc6ccc(OCCCCCCCCCC)cc6)c(c2)c3c45)cc1,fluorescence lifetime,in ClCCl,15.3 ns
Cc1cc(=O)oc2cc3c4ccc(C(C)(C)C)cc4c4cc(C(C)(C)C)ccc4c3cc12,fluorescence lifetime,in ClC(Cl)Cl,1.3 ns
COc1cc(OC)cc(C2=[O+][B-](F)(F)OC(c3cccs3)=C2)c1,fluorescence lifetime,in ClCCl,4.53 ns
CCCCCCCCCCCCN1C(=O)c2c(c3ccc4cc(-c5ccc(Cl)cc5)c(OC)cc4c3c3c2ccc2cc(-c4ccc(Cl)cc4)c(OC)cc23)C1=O,fluorescence lifetime,in ClCCl,6.15 ns
CN(C)c1ccc(-c2cc(-c3ccc(C#N)cc3)nc(-c3ccccc3)n2)cc1,fluorescence lifetime,in ClC(Cl)Cl,3.5 ns
COc1cc(OC)cc(-c2ccc(-c3ccc(C#N)s3)s2)c1,fluorescence lifetime,in C1CCCCC1,0.22 ns
same,fluorescence lifetime,in C1COCCO1,0.23 ns
same,fluorescence lifetime,in CC#N,0.24 ns
same,fluorescence lifetime,in CC(C)O,0.23 ns
same,fluorescence lifetime,in CCCCO,0.24 ns
same,fluorescence lifetime,in CCO,0.24 ns
same,fluorescence lifetime,in CCOC(C)=O,0.22 ns
same,fluorescence lifetime,in CN(C)C=O,0.28 ns
same,fluorescence lifetime,in CO,0.25 ns
same,fluorescence lifetime,in CS(C)=O,0.35 ns
same,fluorescence lifetime,in Cc1ccccc1,0.22 ns
same,fluorescence lifetime,in ClC(Cl)Cl,0.22 ns
same,fluorescence lifetime,in ClCCl,0.23 ns
same,fluorescence lifetime,in O,1.02 ns
CC(C)(C)[Si](C)(C)c1cccc2ccccc12,fluorescence lifetime,in C1CCCCC1,56 ns
CC1(C)c2ccccc2N(c2ccc(C(=CC#N)c3ccc(N4c5ccccc5C(C)(C)c5ccccc54)cc3)cc2)c2ccccc21,fluorescence lifetime,in Cc1ccccc1,5.09 ns
c1ccc(-c2nnc(-c3ccc(-n4c5ccccc5c5ccccc54)cc3)o2)cc1,fluorescence lifetime,in CCO,2.01 ns
CC(C)(C)c1ccc2c(c1)[nH]c1c3[nH]c4cc(C(C)(C)C)ccc4c3c3nsnc3c21,fluorescence lifetime,in CN(C)C=O,2.29 ns
same,fluorescence lifetime,in Cc1ccccc1,1.5 ns
same,fluorescence lifetime,in ClCCl,2.61 ns
c1ccc(-c2nc(-c3ccccc3)nc(-c3ccc(-n4c5ccccc5c5ccc6c7ccccc7n(-c7ccccc7)c6c54)cc3)n2)cc1,fluorescence lifetime,in O=P(c1ccccc1)(c1ccccc1)c1ccc2oc3ccc(P(=O)(c4ccccc4)c4ccccc4)cc3c2c1,11.9 ns
CCN(CC)c1ccc(-c2cc3c(s2)c(C(=O)OC)cc(=O)n3C)cc1,fluorescence lifetime,in ClCCl,6.59 ns
O=S(=O)([O-])CCCCN1C=C/C(=C/C=C/C=C/c2cc[n+](CCCCS(=O)(=O)[O-])c3ccccc23)c2ccccc21,fluorescence lifetime,in CS(C)=O,0.36 ns
N#C/C(=C(/C#N)c1ccc(-c2ccncc2)cc1)c1ccc(-c2ccncc2)cc1,fluorescence lifetime,in ClCCl,0.1 ns
COc1ccc(-c2cc3c(s2)c(C(C)=O)cc(=O)n3C)cc1,fluorescence lifetime,in ClCCl,1.51 ns
CCCCCCc1cc(-c2ccc3c(c2)C2CCCC2N3c2ccc3c(c2)C(C)(C)c2ccccc2-3)sc1/C=C1\C(=O)c2ccc(C(=O)O)cc2C1=O (stereo not given),fluorescence lifetime,in ClC(Cl)Cl,1.32 ns
CCN1\C(=C/C=C/C=C/C2=[N+](CC)c3ccc4cc(Br)ccc4c3C2(C)C)C(C)(C)c2c1ccc1cc(Br)ccc21,fluorescence lifetime,in C1CCOC1,1.37 ns
same,fluorescence lifetime,in CC#N,1.01 ns
same,fluorescence lifetime,in CC(C)=O,1.12 ns
same,fluorescence lifetime,in CCO,1.03 ns
same,fluorescence lifetime,in CN(C)C=O,1.39 ns
same,fluorescence lifetime,in CO,0.84 ns
same,fluorescence lifetime,in CS(C)=O,1.5 ns
same,fluorescence lifetime,in ClCCl,1.46 ns
CCCCCCCCN(CCCCCCCC)c1ccc(/C=C/c2ccc(C#Cc3ccc(-c4ccc(C#Cc5ccc(/C=C/c6ccc(N(CCCCCCCC)CCCCCCCC)cc6)cc5)cc4)cc3)cc2)cc1,fluorescence lifetime,in Cc1ccccc1,0.4 ns
CC1=C(I)C(C)=[N+]2C1=C(c1c(-c3ccccn3)nc3ccccn13)c1c(C)c(I)c(C)n1[B-]2(F)F,fluorescence lifetime,in ClCCl,0.4 ns
C/C=C/c1cc(OC)cc(OC)c1,fluorescence lifetime,in CC#N,2.9 ns
same,fluorescence lifetime,in CCCCCC,1.5 ns
CCOC(=O)CN1C(=O)C2=C(c3ccc(N4CCCCC4)cc3)N(CC(=O)OCC)C(=O)C2=C1c1ccccc1,fluorescence lifetime,in CC#N,2.7 ns
same,fluorescence lifetime,in CS(C)=O,6.7 ns
same,fluorescence lifetime,in Cc1ccccc1,4 ns
C(#Cc1nccnc1C#Cc1ccccc1)c1ccccc1,fluorescence lifetime,in CC#N,0.336 ns
N#Cc1ccc(C#Cc2ccc(C#Cc3ccc(C#Cc4ccccc4C#N)cc3C#N)cc2C#N)cc1,fluorescence lifetime,in C1CCOC1,1.23 ns
same,fluorescence lifetime,in CC#N,1.79 ns
same,fluorescence lifetime,in CN(C)C=O,1.61 ns
same,fluorescence lifetime,in ClC(Cl)Cl,1.14 ns
same,fluorescence lifetime,in c1ccccc1,1.65 ns
O=C(c1ccccc1)c1cc2ccc1CCc1ccc(cc1-c1ccc(N(c3ccccc3)c3ccccc3)cc1)CC2,fluorescence lifetime,[1],17 ns
N#CC=C(c1ccc(N2c3ccccc3Oc3ccccc32)cc1)c1ccc(N2c3ccccc3Oc3ccccc32)cc1,fluorescence lifetime,in Cc1ccccc1,5.84 ns
COc1ccc(/C=C/c2ccccc2)cc1,fluorescence lifetime,in CC#N,0.04 ns
COc1ccc(/C=C/C2=C3CCc4ccccc4C3=[O+][B-](F)(F)O2)cc1,fluorescence lifetime,in ClCCl,0.24 ns
COc1ccc(-c2oc3cccc4c5c(-c6ccc(OC)c(OC)c6)c(=N)oc6cccc(c2c34)c65)cc1OC,fluorescence lifetime,in ClC(Cl)Cl,1.9 ns
Nc1ccc2c3c(cccc13)C(=O)c1ccccc1-2,fluorescence lifetime,in CC#N,5.9 ns
same,fluorescence lifetime,in CC(C)=O,6.9 ns
same,fluorescence lifetime,in CC(C)O,2 ns
same,fluorescence lifetime,in CCCCOCCCC,9.2 ns
same,fluorescence lifetime,in CCOC(C)=O,7.1 ns
same,fluorescence lifetime,in CCOCC,9.5 ns
same,fluorescence lifetime,in CO,1.5 ns
same,fluorescence lifetime,in Cc1ccccc1,9.2 ns
same,fluorescence lifetime,in Clc1ccccc1,8.6 ns
same,fluorescence lifetime,in N#Cc1ccccc1,7.5 ns
same,fluorescence lifetime,in O=C1CCCCC1,7.8 ns
c1ccc2c(c1)[nH]c1c3[nH]c4ccccc4c3c3nsnc3c21,fluorescence lifetime,in CN(C)C=O,1.3 ns
same,fluorescence lifetime,in Cc1ccccc1,1.02 ns
same,fluorescence lifetime,in ClCCl,1.27 ns
Cc1nnc(-c2cc(-n3c4ccccc4c4ccccc43)c(-n3c4ccccc4c4ccccc43)cc2-c2nnc(C)o2)o1,fluorescence lifetime,in Cc1ccccc1,14.5 ns
COc1ccc(-c2c3cc4cc(C)sc4cc3c(-c3ccc(OC)cc3)c3cc4cc(C)sc4cc23)cc1,fluorescence lifetime,in ClCCl,9.7 ns
C[n+]1ccn(CCCCc2ccc3c(c2)c2ccccc2n3-c2cc(C#N)c(C#N)cc2-n2c3ccccc3c3cc(CCCCn4cc[n+](C)c4)ccc32)c1,fluorescence lifetime,in CC#N,4.97 ns
COC(=O)c1[nH]c(-c2ccccc2)c2nnc3c4ccccc4oc3c12,fluorescence lifetime,in ClCCl,3.36 ns
Cc1cc(C)c(B2c3cc(C)ccc3N3c4ccc(C)cc4B(c4c(C)cc(C)cc4C)c4cc(C)cc2c43)c(C)c1,fluorescence lifetime,in Cc1ccccc1-c1cccc(Oc2cc3c4c(c2)Oc2cc(-c5ccccc5C)ccc2B4c2ccc(-c4ccccc4C)cc2O3)c1,6.9 ns
N#C/C(=C\c1ccc(-c2ccncc2)cc1)c1ccc(-c2ccncc2)cc1,fluorescence lifetime,in ClCCl,0.1 ns
COc1ccc(N(c2ccc(OC)cc2)c2ccc(-c3ccc4c(c3)C(=O)c3ccccc3C4=O)cc2)cc1,fluorescence lifetime,in CCCCCC,7.04 ns
same,fluorescence lifetime,in Cc1ccccc1,1.09 ns
same,fluorescence lifetime,in ClC(Cl)(Cl)Cl,5.94 ns
c1ccc(-c2cc3cccc[n+]3[b-]3c(-c4cccc5[b-]4[n+]4ccccc4cc5-c4ccccc4)cccc32)cc1,fluorescence lifetime,in C1CCCCC1,4.5 ns
N#Cc1ccc(/C=C2\OC(=O)c3cc(N)ccc32)cc1,fluorescence lifetime,in CC#N,0.51 ns
same,fluorescence lifetime,in CC(C)=O,0.54 ns
same,fluorescence lifetime,in CC(C)CO,2.4 ns
same,fluorescence lifetime,in CCO,2.2 ns
same,fluorescence lifetime,in CCOC(C)=O,0.75 ns
same,fluorescence lifetime,in CO,2.67 ns
